Laboratory results published in patent US20210139610A1, “COMPOSITIONS AND METHODS FOR MEDIATING EPS” (priority 2018, published 2021).
“Also recorded” adds a separate entry of the source.

What was measured:
[1] = tested on: Z-DNA and B-DNA in the NTHI biofilm extracellular matrix; experiment: Immunofluorescence CLSM for Z-DNA / B-DNA in NTHI biofilms; type: cell-based, Non-typeable Haemophilus influenzae; settings: 24 h biofilm + 16 h with agent (1 mM CeCl3; 1 μM chloroquine)
Procedure: FIG. 31: DNase degrades B-DNA, but not Z-DNA, within the biofilm extracellular matrix. DNase (Pulmozyme; 5 units) was added at 24 h after biofilm seeding to in vitro pre-formed NTHI biofilms.
FIG. 37: HMGB1 destabilizes Z-DNA structures in the biofilm extracellular matrix. Non-typeable Haemophilus influenzae biofilms were grown in supplemented BHI media in 8 well chambered coverglass slides at 37° C. and 5% CO2. After 24 h, biofilms were treated as indicated above. After 40 h, biofilms were washed, probed with primary antibodies directed against Z-DNA (light gray dots), a fluorescent secondary antibody, stained with DAPI (gray regions), and visualized via fluorescence microscopy.
FIGS. 50A-50B: Equilibrium shift of B-DNA to Z-DNA conversion alters biofilm formation. NTHI biofilms formed for 24 h were incubated with cerium chloride (CeCl3) or chloroquine for an additional 16 h and were probed with naive or anti-Z-DNA (white) by immunofluorescence CLSM.
FIGS. 51A-51B: Equilibrium shift of B-DNA to Z-DNA conversion alters biofilm formation. NTHI biofilms formed for 24 h were incubated with cerium chloride (CeCl3) (FIG. 51A) or chloroquine (FIG. 51B) for an additional 16 h. Z-DNA was measured by IF and CLSM using anti-Z-DNA and cells were stained with the membrane stain FM4-64. Bars represent the SEM. Statistical significance compared to control was assessed by paired t-tests, *P<0.05, **P<0.01.

preformed NTHI biofilms [2] = experiment: Disruption of pre-formed NTHI biofilms (treatment after initial growth; LIVE/DEAD, CLSM, COMSTAT); type: cell-based, Non-typeable Haemophilus influenzae; settings: 24 h biofilm + 16 h with CeCl3 or chloroquine
genomic DNA / poly(dGdC) = experiment: A260/295 absorbance ratio assay of B-DNA to Z-DNA conversion; type: biochemical
Procedure: In one aspect, the agents are administered in the absence of a DNAse. Left: Genomic DNA (2 μg/mL) was incubated with spermidine (spd:300 μM), HU (500 nM), a combination of both spd and HU for 2 h at 37° C. Incubation of gDNA with 3.6M NaCl was used as a positive Z-DNA control. Middle: gDNA (2 μg/mL) was incubated with increased concentrations of Cerium chloride (CeCl3) which is known to induce Z-DNA. Right: poly(dGdC) (1 μg) was incubated with either NaCl (3.6 M), chloroquine (100 μM), or a combination of both NaCl and chloroquine. […] The absorbance values at 260 nm and 295 nm were measured and the A260/295 ratio was calculated. A ratio >8.6 is indicative of B-DNA, while a value near 3.2 is indicative of Z-DNA.

preformed NTHI biofilms [3] = experiment: Disruption of pre-formed NTHI biofilms (treatment after initial growth; LIVE/DEAD, CLSM, COMSTAT); type: cell-based, Non-typeable Haemophilus influenzae; settings: 1% P11
Procedure: (FIG. 18A) Biofilm growth was initiated then maintained for 24 hrs then treated for 16 hrs with 0 (SBHI Control), 0.1%, 1%, and 5% (w/v) of Phoshocellulose (P11). (FIG. 18B) Biofilm growth was initiated then maintained for 40 hrs in the presence of 0 (sBHI Control), 0.1%, 1%, and 5% (w/v) of (P11). Biofilms were washed with saline and stained with LIVE/DEAD® stain. Images were analyzed by COMSTAT to calculate average thickness and biomass. All images were captured with a 63× objective.
21:65-7. Pulmozyme® was added either at seeding (biofilm prevention) or to pre-formed biofilms (biofilm disruption) (FIG. 6). The resultant biofilms were stained with LIVE/DEAD® and evaluated using CLSM and COMSTAT analysis.
To determine anti-biofilm activity of cation exchange resins on preformed biofilms (i.e. ability to disrupt an extant biofilm), NTHI growth was initiated and maintained for 24 hrs, then treated for 16 hrs with 0 (sBHI Control), 0.1, 1, or 5% (w/v) of P11 phosphocellulose (FIG. 18A). To determine the anti-biofilm activity of cation exchange resins to prevent biofilm formation, NTHI growth was initiated and maintained in the presence of 0 (sBHI Control), 0.1, 1, and 5% w/v of P11 phosphocellulose (FIG. 18B) or 5% (w/v) heparin sepharose (FIG. 19). Biofilms were washed with saline and stained with LIVE/DEAD®, visualized with confocal scanning microscopy (CSLM) and analyzed by COMSTAT to determine average thickness and biomass.

NTHI genomic DNA (gDNA) = experiment: Protection of genomic DNA from DNase digestion (agarose gel); type: biochemical, Non-typeable Haemophilus influenzae; settings: DNase 0.5 units
Procedure: (FIG. 7C) Increasing levels of spermidine (Spd) and HU, separately or together, were incubated with genomic DNA (2 μg/ml) for 1.5 h at 37° C., followed by treatment with Pulmozyme® for 20 min. DNA degradation was assayed using agarose gel electrophoresis. […] (FIG. 7D) Spd (300 μM) and HU (1 μM) were incubated with genomic DNA (2 μg/ml) for 40 h, followed by Pulmozyme® treatment for 20 min.
To test synergism in vitro, Applicants incubated NTHI genomic DNA (gDNA) with spermidine (10, 20, 50, or 100 μM) in the presence or absence of HU (50 or 100 nM) and DNase (0.5 units). Degradation was assessed by agarose gel electrophoresis and UV illumination.

NTHI biofilms = experiment: Transwell assay: NTHI biofilm in basolateral chamber, P11 resin in apical chamber; type: cell-based, Non-typeable Haemophilus influenzae
Procedure: (FIG. 42A) NTHI biofilm growth was initiated at 37° C., 5% CO2 in the basolateral chamber of a transwell plate system whereas P11 resin was added to the apical chamber, and incubated for 16 h. (FIG. 42B) Biofilms were stained, fixed, visualized via CLSM, and analyzed by COMSTAT. […] (FIG. 42C) Spermidine (Spd, 300 μM) and HU (500 nM) were added at seeding.
To determine the effect of P11 sequestration of these molecules on bacterial biofilm formation, Applicants utilized a transwell system. NTHI growth was initiated in the basolateral chamber while P11 (1% w/v) was added to the apical chamber at seeding. At 16 h, the biofilms were washed and stained with LIVE/DEAD®, imaged using CLSM, and analyzed with COMSTAT. […] To determine whether P11 cation depletion included polyamines and/or DNABII proteins, NTHI growth was initiated in the basolateral chamber with the exogenous addition of 1 mM spermidine and 1 μM HU, while P11 was added at 1% w/v to the apical chamber.
To determine whether the decrease in biofilm formation was dependent on direct cellular contact, NTHI growth was initiated in the basal chamber of a transwell plate system that contained a 0.4 μm pore size within the membrane that separates the apical and basolateral chambers. This allows for the diffusion of small molecules e.g. proteins (DNABII), polyamines and divalent metal cations between the two chambers, but not bacterial cells. […] Biofilms were washed with saline and stained with LIVE/DEAD®, visualized with CSLM and analyzed by COMSTAT to determine average thickness and biomass.
To determine whether polyamines (spermidine) are depleted by P11 phosphocellulose without direct contact in the transwell system, NTHi growth was initiated in the basolateral chamber containing 0, 100, 500, or 1000 μM Spermidine, while 0 (sBHI control) or 1.5% (w/v) P11 phosphocellulose was added to the apical chamber and maintained for 16 hrs. Biofilms were washed with saline and stained with LIVE/DEAD®, visualized with CSLM and analyzed by COMSTAT to determine average thickness and biomass. […]

[4] = tested on: Non-typeable Haemophilus influenzae biofilms; experiment: NTHI in vitro biofilm formation, additive present from seeding (LIVE/DEAD, CLSM, COMSTAT); type: cell-based; settings: 1 mM exogenous spermidine plus DCHA 50 μM
Procedure: FIG. 14: Non-typeable Haemophilus influenzae biofilms were grown for 40 h in supplemented BHI medium containing additives as indicated below each bar in 8 well chambered coverglass slides at 37° C. and 5% CO2. Biofilms were washed, stained with LIVE/DEAD®, fixed, and imaged by CLSM. Biofilm parameters were quantified using COMSTAT software.
Dicyclohexylamine inhibits spermidine synthase via a competitive inhibition mechanism, i.e. through binding to the same site on the protein as the putrescine substrate. Applicants therefore hypothesized that dicyclohexylamine would inhibit NTHi biofilm development. […]

[5] = tested on: NTHI biofilms in the middle ear; experiment: Chinchilla model of otitis media due to NTHI, middle ear biofilm scoring; type: in vivo; settings: 5 μg to middle ears at 4 and 5 days post infection, scored 24 h later
Procedure: FIGS. 39A-39B: HMGB1 promotes biofilm resolution in an experimental model (chinchilla host) of OM. Diluent or 5 μg rHMGB1 or mHMGB1 were delivered directly to middle ears of chinchillas at 4 and 5 days post infection with NTHI. Animals were sacrificed 24 h later, and their middle ears were imaged (FIG. 39A) and blindly scored (FIG. 39B) based on the criteria described in the bottom of (FIG. 39A). Bars represent SEM. ***P<0.001.

genomic DNA = experiment: Spermidine sensitivity of nucleases on genomic DNA; type: biochemical; settings: Spermidine titrated from 10 μM-10 mM

## [Cl][Ce]([Cl])[Cl] [CeCl3, cerium chloride]
[1]
  Z-DNA abundance in NTHI biofilm: increased Z-DNA abundance
Preformed NTHI biofilms [2]
  NTHI biofilm formation / development: increased Z-DNA and biofilm formation
Genomic DNA / poly(dGdC); gDNA 2 μg/mL, spd 300 μM + HU 500 nM, 2 h at 37° C., or increased concentrations of CeCl3
  induction of Z-DNA in genomic DNA: synergized to induce Z-DNA

## [Cl-].[Cl-].[Mg+2] [MgCl2]
Preformed NTHI biofilms [3]; MgCl2 0-10 mM for 16 hrs
  compensation of phosphocellulose effect on NTHI biofilm: can partially compensate for the disruptive effect of phosphocellulose; also recorded: rescues the negative effect of phosphocellulose on NTHI biofilm stability

## NCCCCNCCCN [spermidine]
NTHI genomic DNA (gDNA)
  concentration protecting gDNA from DNase individually: > 100 µM
NTHI genomic DNA (gDNA); admixed with HU
  concentration inhibiting gDNA digestion synergistically when admixed: < 50 µM
NTHI biofilms; 1% P11, 1 mM spermidine or 1 μM HU, data not shown
  restoration of P11-depleted biofilm by HU or spermidine individually: insufficient
NTHI biofilms; 1.5% P11, 100, 500 or 1000 μM spermidine, 16 hrs
  restoration of cation-depleted biofilms by spermidine alone: alone can restore cation-depleted biofilms in a dose-dependent manner; also recorded: reduces the cation depletion effects of P11 phosphocellulose
Preformed NTHI biofilms [3]; spermidine 0-5 mM for 16 hrs
  compensation of phosphocellulose effect on NTHI biofilm: can partially compensate for the negative effect of phosphocellulose
Preformed NTHI biofilms [3]; spermidine 0-5 mM for 16 hrs, listed as Spermidine
  compensation of phosphocellulose effect on NTHI biofilm: rescues the negative effect of phosphocellulose on NTHI biofilm stability
[4]
  rescue of biofilm formation in dicyclohexylamine-treated NTHI biofilms: defects in biofilm biogenesis could be compensated for; also recorded: restored normal biofilm thickness, biomass, and roughness; also recorded: able to rescue biofilm growth
[4]; listed as Spd
  rescue of biofilm formation in dicyclohexylamine-treated NTHI biofilms: restored biofilm formation

## CCN(CC)CCCC(C)Nc1ccnc2cc(Cl)ccc12 (centres unmarked) [chloroquine]
[1]
  Z-DNA abundance in NTHI biofilm: decreased Z-DNA abundance; also recorded: reduced Z-DNA
Preformed NTHI biofilms [2]
  NTHI biofilm formation / development: reduced Z-DNA and biofilm development
Genomic DNA / poly(dGdC); chloroquine 100 μM with NaCl 3.6 M
  B-DNA to Z-DNA transition of poly(dGdC): prevents the transition of B-DNA to Z-DNA

B1: non-inflammatory HMGB1 variant: mHMGB1, a C45 S non-inflammatory variant (protein, UniProt P09429 1-215, looked up, variant C45S)
High mobility group protein B1: MGKGDPKKPRGKMSSYAFFVQTCREEHKKKHPDASVNFSEFSKKSSERWKTMSAKEKGKFEDMAKADKARYEREMKTYIPPKGETKKKFKDPNAPKRPPSAFFLFCSEYRPKIKGEHPGLSIGDVAKKLGEMWNNTAADDKQPYEKKAAKLKEKYEKDIAAYRAKGKPDAAKKGVVKAEKSKKKKEEEEDEEDEEDEEEEEDEEDEDEEEDDDDE
[5]
  resolution of middle ear NTHI biofilms: efficient resolution of adherent biofilms

B2: NucB: nuclease that prevents biofilm formation (Table 1) (protein, UniProt P42983 29-136, looked up)
Sporulation-specific …: SYDKVLYFPLSRYPETGSHIRDAIAEGHPDICTIDRDGADKRREESLKGIPTKPGYDRDEWPMAVCEEGGAGADVRYVTPSDNRGAGSWVGNQMSSYPDGTRVLFIVQ
Genomic DNA
  Spd inhibition: spermidine concentration where nuclease was reduced to <10% activity on genomic DNA: >10 mM
